In patent US20220257582A1, “TREATMENT FOR SYNUCLEINOPATHIES” (SUN PHARMA ADVANCED RESEARCH COMPANY LIMITED, priority 2019, published 2022):

Tested on: AAV1/2-mediated over-expression of human A53T alpha-synuclein (hA53T-aSYN) in the striatonigral region of female Sprague Dawley (SD) rats
Assay: AAV1/2 alpha synuclein rat model of synucleinopathy (neuroprotective potential)
Assay type: in vivo
Settings: Day 2 to Day 42; for Striatal dopamine levels, operated vs non-operated sides: FIG. 3; for Nigral TH+ve cell counts (operated side): TH+ve neurons in the striatonigral region compared to empty AAV1/2 control animals: immunohistochemistry and stereological cell counting, FIG. 1; for Striatal TH OD (operated vs non-operated sides): FIG. 2
Experimental: Compound I was evaluated in a adeno-associated virus (AAV) AAV1/2 alpha synuclein rat model based upon AAV1/2-mediated delivery and over-expression of human A53T alpha-synuclein (hA53T-aSYN) in the striatonigral region of the midbrain of female Sprague Dawley (SD) rats (Koprich et al, PLoS One. 7; 6(3):e17698, 2011). The study was designed to assess the ability of Compound I to protect dopaminergic neurons from viral vector mediated over-expression of aSYN leading to neurodegeneration in rat model. This model is typically used as a model for aSYN-induced Parkinsonism, but may serve as a model for aSYN-induced neuronal loss in general. AAV1/2 hA53T-aSYN (a viral vector delivering the capability to express human A53T mutant aSYN), or the control AAV1/2 empty vector, was injected stereotactically and unilaterally, into the striatal region of the midbrain. Rats were treated orally with Compound I (melt extrusion suspension), once daily, to provide equivalent doses of Compound I at 15, 30 and 45 mg/kg.
AAV1/2 hA53T-aSYN or empty AAV1/2 vector was administered sterotactically and unilaterally into the right striatal region on Day 1. Starting on Day 2 and continuing daily until Day 42, animals were fasted for 6 hr prior to oral administration of Compound I or vehicle (placebo). Food was reintroduced 60 minutes later. A total of 5 groups of animals, each group N=12, were employed.
Animals were killed for post-mortem assessments on Day 43, at least 18 h after last administration of Compound I or vehicle. Brains were removed along with the terminal blood collection.
As a consequence of localized synucleinopathy caused by the AAV1/2-encoded hA53T aSYN at or near the site of injection, tyrosine hydroxylase (TH)-expressing dopaminergic neurons in the affected striatonigral area degenerate (Koprich et al., PLoS One, 7; 6(3):e17698, 2011). Number of tyrosine hydroxylase positive (TH^+ve) cells within the striatonigral region of the right side of the brain (injected side), were assessed using immunohistochemistry and stereological cell counting. Tyrosine hydroxylase is a critical enzyme involved in dopamine biosynthesis and thus, its presence can be used as a marker of live neurons capable of producing dopamine.

With `Cc1ccc(C(=O)NNC(=O)c2c(C)cccc2Cl)cc1C#Cc1cnc2ccccc2c1` [Compound I] the “Striatal dopamine levels, operated vs non-operated sides” value (15 mg/kg oral once daily) was “failed to restore the dopamine biosynthetic capability”, the “Nigral TH+ve cell counts (operated side): TH+ve neurons in the striatonigral region compared to empty AAV1/2 control animals” value (15 mg/kg oral once daily) was “significant reduction (p<0.05)” and the “Striatal TH OD (operated vs non-operated sides)” value (30 mg/kg oral once daily) was “significant neuroprotective effect”. The “Striatal dopamine levels, operated vs non-operated sides” value (30 mg/kg oral once daily) was “failed to restore the dopamine biosynthetic capability”, the “Nigral TH+ve cell counts (operated side): TH+ve neurons in the striatonigral region compared to empty AAV1/2 control animals” value (30 mg/kg oral once daily) was “significant reduction (p<0.05)” and the “Striatal TH OD (operated vs non-operated sides)” value (45 mg/kg oral once daily) was “significant neuroprotective effect”. The “Striatal dopamine levels, operated vs non-operated sides” value (45 mg/kg oral once daily) was “still lower than that from its left counterpart” and the “Nigral TH+ve cell counts (operated side): TH+ve neurons in the striatonigral region compared to empty AAV1/2 control animals” value (45 mg/kg oral once daily) was “did not show significant reduction (p>0.05)”.
